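Briefly, cells in 96-well plates were exposed to five compound concentrations for 48 h, and endpoints were estimated by linear interpolation. Abbreviation: GI50, concentration required for 50% inhibition of growth.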 The source made the active and inactive calls. No stated cut-off is given here; in the data, active = GI50 up to about 1.1 µM and inactive = higher.
Legend:
Assay in all cases: growth of human tumour cells (NCI), 48 h
HCT-15 = system: HCT-15
MDA-MB-435 = system: MDA-MB-435
HCC 2998 = system: HCC 2998
PC-3 = system: PC-3
OVCAR-5 = system: OVCAR-5
UACC-62 = system: UACC-62
NCI-H460 = system: NCI-H460
OVCAR-4 = system: OVCAR-4
NCI-H522 = system: NCI-H522
CAKI-1 = system: CAKI-1
SK-OV-3 = system: SK-OV-3
MCF7 = system: MCF7
UO-31 = system: UO-31
SN12C = system: SN12C
MDA-N = system: MDA-N
CCRF-CEM = system: CCRF-CEM
SW-620 = system: SW-620
HL-60 = system: HL-60
NCI/ADR-RES = system: NCI/ADR-RES
A549 = system: A549
U-251 = system: U-251
Malme-3M = system: Malme-3M
HCT-116 = system: HCT-116
NCI-H23 = system: NCI-H23
MOLT-4 = system: MOLT-4
SK-MEL-2 = system: SK-MEL-2
OVCAR-3 = system: OVCAR-3
UACC-257 = system: UACC-257
EKVX = system: EKVX
SF-295 = system: SF-295
K562 = system: K562
T47D = system: T47D
ACHN = system: ACHN
OVCAR-8 = system: OVCAR-8
MDA-MB-231 = system: MDA-MB-231
SF-268 = system: SF-268
LOX IMVI = system: LOX IMVI
SNB-19 = system: SNB-19
HOP-62 = system: HOP-62
SK-MEL-28 = system: SK-MEL-28
786-0 = system: 786-0
KM12 = system: KM12
M14 = system: M14
DU-145 = system: DU-145
SF-539 = system: SF-539
RXF 393 = system: RXF 393
SK-MEL-5 = system: SK-MEL-5
HT-29 = system: HT-29
SNB-75 = system: SNB-75
NCI-H226 = system: NCI-H226
HOP-92 = system: HOP-92
IGROV-1 = system: IGROV-1
COLO 205 = system: COLO 205
TK-10 = system: TK-10

Clc1ccc(COC(Cn2ccnc2)c2ccc(Cl)cc2Cl)c(Cl)c1 (stereo unspecified) [MICONAZOLE NITRATE]
GI50 (HCT-15): 10.2 µM | GI50 (MDA-MB-435): 3.37 µM (inactive) | GI50 (HCC 2998): 12.8 µM (inactive) | GI50 (PC-3): 5.7 µM (inactive) | GI50 (OVCAR-5): 12.9 µM (inactive) | GI50 (UACC-62): 10.2 µM (inactive) | GI50 (NCI-H460): 12.6 µM (inactive) | GI50 (OVCAR-4): 11.9 µM (inactive) | GI50 (NCI-H522): 8.2 µM (inactive) | GI50 (CAKI-1): 10.5 µM (inactive) | GI50 (SK-OV-3): 14.3 µM (inactive) | GI50 (MCF7): 14.7 µM (inactive) | GI50 (UO-31): 2.94 µM (inactive) | GI50 (SN12C): 7.96 µM (inactive) | GI50 (MDA-N): 3.89 µM (inactive) | GI50 (CCRF-CEM): 5.82 µM (inactive) | GI50 (SW-620): 12.8 µM (inactive) | GI50 (HL-60): 3.48 µM (inactive) | GI50 (NCI/ADR-RES): 4 µM (inactive) | GI50 (A549): 10.9 µM (inactive) | GI50 (U-251): 11 µM (inactive) | GI50 (Malme-3M): 12.5 µM (inactive) | GI50 (HCT-116): 5.3 µM (inactive) | GI50 (NCI-H23): 8.15 µM (inactive) | GI50 (MOLT-4): 3.36 µM (inactive) | GI50 (SK-MEL-2): 13.1 µM (inactive) | GI50 (OVCAR-3): 9.86 µM (inactive) | GI50 (UACC-257): 11 µM (inactive) | GI50 (EKVX): 10.5 µM (inactive) | GI50 (SF-295): 10.8 µM (inactive) | GI50 (K562): 3.75 µM (inactive) | GI50 (T47D): 4.57 µM (inactive) | GI50 (ACHN): 12.2 µM (inactive) | GI50 (OVCAR-8): 8.39 µM (inactive) | GI50 (MDA-MB-231): 11.9 µM (inactive) | GI50 (SF-268): 10.3 µM (inactive) | GI50 (LOX IMVI): 9.18 µM (inactive) | GI50 (SNB-19): 15.9 µM (inactive) | GI50 (HOP-62): 13.2 µM (inactive) | GI50 (SK-MEL-28): 12.7 µM (inactive) | GI50 (786-0): 10.9 µM (inactive) | GI50 (KM12): 13.3 µM (inactive) | GI50 (M14): 10.6 µM (inactive) | GI50 (DU-145): 13 µM (inactive) | GI50 (SF-539): 14.6 µM (inactive)

COC(=O)C1ON2C(C1C(=O)OC)C(C)(C)N(O)C2(C)C (stereo unspecified)
GI50 (HCT-15): > 10 µM | GI50 (MDA-MB-435): > 10 µM (inactive) | GI50 (PC-3): > 10 µM (inactive) | GI50 (OVCAR-5): > 10 µM (inactive) | GI50 (OVCAR-4): > 10 µM (inactive) | GI50 (CAKI-1): > 10 µM (inactive) | GI50 (RXF 393): > 10 µM (inactive) | GI50 (SK-MEL-5): > 10 µM (inactive) | GI50 (SN12C): > 10 µM (inactive) | GI50 (MDA-N): > 10 µM (inactive) | GI50 (HT-29): > 10 µM (inactive) | GI50 (SW-620): > 10 µM (inactive) | GI50 (SNB-75): > 10 µM (inactive) | GI50 (NCI/ADR-RES): > 10 µM (inactive) | GI50 (A549): > 10 µM (inactive) | GI50 (U-251): > 10 µM (inactive) | GI50 (HCT-116): > 10 µM (inactive) | GI50 (NCI-H23): > 10 µM (inactive) | GI50 (NCI-H226): > 10 µM (inactive) | GI50 (OVCAR-3): > 10 µM (inactive) | GI50 (EKVX): > 10 µM (inactive) | GI50 (HOP-92): > 10 µM (inactive) | GI50 (SF-295): > 10 µM (inactive) | GI50 (ACHN): > 10 µM (inactive) | GI50 (OVCAR-8): > 10 µM (inactive) | GI50 (IGROV-1): > 10 µM (inactive) | GI50 (MDA-MB-231): > 10 µM (inactive) | GI50 (COLO 205): > 10 µM (inactive) | GI50 (SF-268): > 10 µM (inactive) | GI50 (SNB-19): > 10 µM (inactive) | GI50 (SK-MEL-28): > 10 µM (inactive) | GI50 (KM12): > 10 µM (inactive) | GI50 (M14): > 10 µM (inactive) | GI50 (DU-145): > 10 µM (inactive) | GI50 (TK-10): > 10 µM (inactive) | GI50 (SF-539): > 10 µM (inactive)
